Test results as given in patent US20100292316A1, “IMPROVED THERAPEUTIC METHODS AND COMPOSITIONS COMPRISING CHROMAN RING COMPOUNDS” (Research Development Foundation, priority 2007, published 2010).

What was measured:
Arg = Arg mRNA (RT-PCR) and protein (Western blot) levels; format: cell-based, human; details: 40 μM α-TEA
Experimental: Arg (ABL2) expression data obtained from gene array analysis was further confirmed by RT-PCR and Western blot analyses. […] Unlike MDA-MB-435 cells, the MCF-7 cell line is an estrogen-receptor positive/estrogen responsive human breast cancer line (Klotz et al., 1995). However, both cell lines were induced to undergo apoptosis by α-TEA as assessed by PARP cleavage (FIG. 1B).
Whole-cell protein extracts were prepared as described previously (Yu et al., 1999), and 50 μg of protein was loaded per lane, separated using SDS-PAGE on a 10-15% gel under reducing conditions, and electroblotted onto a nitrocellulose membrane ([…] Optitran BA-S-supported nitrocellulose; Schleicher and Schuell, Keene, N.H.). Equal loading was verified using GAPDH antibody. Primary rabbit antibodies with specificity for PARP and primary goat antibody with specificity for Arg were purchased from Santa Cruz Biotechnology (Santa Cruz, Calif.). Horseradish peroxidase conjugated goat anti-rabbit or horseradish goat anti-mouse secondary antibody was purchased from Jackson Immunoresearch Laboratory (West Grove, Pa.). Horseradish peroxidase-conjugated donkey anti-goat serum was purchased from Santa Cruz Biotechnology. Immune complexes were visualized using enhanced chemiluminescence detection (Pierce Chemical Co., Rockford, Ill.). Fold differences in level of chemiluminescence were determined by densitometric analyses.
Total RNA was isolated from cells using RNeasy Protect Mini kit (Qiagen, Valencia, Calif.) according to manufacturer's instruction. Reverse transcription was performed as described above except using 15 μg of total RNA as template. […]
The double stranded small interfering RNA oligonucleotides specific for Arg and negative control siRNA (with no known homology to mammalian genes) were purchased from Ambion (siRNA ID #1478, Austin, Tex.). […] The cells were collected, lysed and the lysates were analyzed by immunoblotting (Western blot).

TSP-1 = TSP-1 mRNA and protein levels in 66c1-4-GFP mouse mammary tumor cells; format: cell-based; details: 66c1-4-GFP cells, 40 μM α-TEA
Akt = assay: Western blot of phosphorylated Akt (Ser 473) and total Akt in prostate cancer cells; format: cell-based, human
From the text: (§1) Previous studies have shown that α-TEA is an effective inducer of apoptosis in human prostate cancer cells (Anderson et al., 2004). Dose- and time-dependent pro-apoptotic effects of α-TEA in prostate cancer cells are mediated by Fas/FADD/caspase-8/tBid and Fas/Daxx/Ask1/JNK1/2/Bax, leading to activation of caspases-9 and -3. Thus, the Akt inhibiting activity of α-TEA was investigated in prostate cancer cells. Since phosphorylation of Akt at Ser 473 is required for its full activation (Cheng et al., 2005), we examined the phosphorylation status of Akt using an antibody that specifically recognizes Akt phosphorylated at Ser 473 in all three Akt isoforms (Upstate Cell Signaling Solutions (Charlottesville, Va.)). α-TEA decreased the levels of the phosphorylated forms of Akt. […] As verification that the decreases in phosphorylation status of Akt correlated with decreased kinase activity, the phosphorylation status of GSK3β, a downstream Akt target, was evaluated following α-TEA treatments. […] GAPDH levels were assayed with each immunoblot assay as a protein loading control.
Since Akt has three isoforms; namely, Akt1, Akt2, and Akt3, it was of interest to determine if α-TEA treatment was reducing the phosphorylated status of all three isoforms. Following α-TEA treatment the three Akt isoforms were immunoprecipitated with isoform specific antibodies, followed by western immunoblotting analyses using antibody specific for phospho-Akt. The protein levels of the isoforms were also determined. […] Treatment diminished the phosphorylation levels in all three Akt isoforms in both LNCaP and PC-3-GFP cells.
1×10^7 LNCaP or PC-3 3-GFP cells were treated with α-TEA and lysed in RIPA lysis buffer in the presence of protease inhibitors. […] Beads were washed 4 times with PBS and the proteins were released from the beads by boiling in Laemmli buffer for 5 min. Immunoprecipitated proteins were identified by SDS-PAGE followed by western immunoblot analyses.
Since Akt is activated, at least in part, by PI3K, we were interested to see if blockage of PI3K activity using the PI3K inhibitor LY294002 (Calbiochem-Novabiochem Corp. (San Diego, Calif.)) (Vlahos et al., 1994) would augment the apoptotic response induced by α-TEA.

GSK3β = assay: Western blot of phospho-GSK3β (Ser 9); format: cell-based, human; details: LNCaP and PC-3-GFP cells, 40 μM α-TEA
From the text: as §1
Akt antibodies for the foregoing studies (Akt, Akt1, Akt2, Akt and phospho-Akt) as well as GSK3β and phospho-GSK3β antibodies were purchased from Cell Signaling Technology (Beverly, Mass.).

survivin = assay: Survivin protein level by immunoblot; format: cell-based, human; details: LNCaP and PC-3-GFP cells, 40 μM α-TEA, time-dependent
From the text: Antibodies to human Flip and survivin used in these experiments were purchased from Santa Cruz Biotechnology (Santa Cruz, Calif.).

[1] = system: human MDA-MB-435 breast cancer cells; details: preclinical xenograft model transplanted with human MDA-MB-435 breast cancer cells (Zhang et al., 2004); cited from earlier work

For `Cc1c(C)c2c(c(C)c1OCC(=O)O)CC[C@@](C)(CCC[C@H](C)CCC[C@H](C)CCCC(C)C)O2` [α-TEA], the “up-regulation of Arg mRNA and protein levels” value (Arg; MCF-7 cells) was “not in MCF-7 cells”, the “peak Arg mRNA levels, fold of the vehicle (VEH) control” value (Arg; MDA-MB-435 cells, 24 h, RT-PCR densitometry) was 1.5 fold and the “peak Arg protein levels, fold of the VEH control” value (Arg; MDA-MB-435 cells, 24 h, Western densitometry) was 2.9 fold. The “peak TSP-1 mRNA levels, fold of VEH control” value (TSP-1; 6 h) was 2.4 fold, the “TSP-1 protein levels, fold of VEH control” value (TSP-1; 24 h) was 7.8 fold and the “phosphorylation levels of Akt1, Akt2, Akt3 isoforms (immunoprecipitation)” value (Akt; LNCaP and PC-3-GFP cells, 40 μM α-TEA, 24 h) was “markedly reduced”. The “effect on level of Akt protein expression” value (Akt; LNCaP and PC-3-GFP cells, any time point) was “no major effect”, the “inhibition of levels of endogenously phosphorylated Akt” value (Akt; LNCaP cells, 10 μM α-TEA and/or 10 μM LY294002) was 40% and the “reduction of phosphorylated forms of Akt” value (Akt; LNCaP cells, 40 μM α-TEA, 24 h) was 90%. The “inhibition of levels of endogenously phosphorylated Akt” value (Akt; PC-3-GFP cells, 20 μM α-TEA and/or 10 μM LY294002) was 70%, the “reduction of phosphorylated forms of Akt” value (Akt; PC-3-GFP cells, 40 μM α-TEA, 24 h) was 70% and the “phosphorylation status of pGSK3β (at Ser 9)” value (GSK3β) was “Decreases”. The “protein levels of survivin” value (survivin) was “downregulated” and the blood vessel density [1] was “significantly reduce blood vessel density”.
